ChEMBL document CHEMBL3627608, “Crystal structures of human RIP2 kinase catalytic domain complexed with ATP-competitive inhibitors: Foundations for understanding inhibitor selectivity” (Bioorg Med Chem, 2015)

Tests used:
[1] = target: Serine/threonine-protein kinase 38 (Homo sapiens) (UniProt Q15208); experiment: Inhibition of STK38 (unknown origin) at 10 uM after 120 mins P33 radiolabeled kinase activity assay
[2] = target: RAF proto-oncogene serine/threonine-protein kinase (Homo sapiens) (UniProt P04049); experiment: Inhibition of RAF1 (unknown origin) at 10 uM after 120 mins P33 radiolabeled kinase activity assay
[3] = target: Cyclin-dependent kinase 7/ cyclin H (Homo sapiens) (UniProt P51946+P50613); experiment: Inhibition of CDK7/cyclin H (unknown origin) at 10 uM after 120 mins P33 radiolabeled kinase activity assay; assay type: protein-complex assay
[4] = target: CDK6/cyclin D3 (Homo sapiens) (UniProt P30281+Q00534); experiment: Inhibition of CDK6/cyclin D3 (unknown origin) at 10 uM after 120 mins P33 radiolabeled kinase activity assay; assay type: protein-complex assay
[5] = target: Mitogen-activated protein kinase kinase kinase 20 (Homo sapiens) (UniProt Q9NYL2); experiment: Inhibition of ZAK (unknown origin) at 10 uM after 120 mins P33 radiolabeled kinase activity assay
[6] = target: Casein kinase I isoform alpha (Homo sapiens) (UniProt P48729); experiment: Inhibition of CK1alpha1 (unknown origin) at 10 uM after 120 mins P33 radiolabeled kinase activity assay
[7] = target: T1, Ephrin type-B receptor 3 (Homo sapiens) (UniProt P54753); experiment: Inhibition of EPHB3 (unknown origin) at 10 uM after 120 mins P33 radiolabeled kinase activity assay
T1 sequence (whole entry): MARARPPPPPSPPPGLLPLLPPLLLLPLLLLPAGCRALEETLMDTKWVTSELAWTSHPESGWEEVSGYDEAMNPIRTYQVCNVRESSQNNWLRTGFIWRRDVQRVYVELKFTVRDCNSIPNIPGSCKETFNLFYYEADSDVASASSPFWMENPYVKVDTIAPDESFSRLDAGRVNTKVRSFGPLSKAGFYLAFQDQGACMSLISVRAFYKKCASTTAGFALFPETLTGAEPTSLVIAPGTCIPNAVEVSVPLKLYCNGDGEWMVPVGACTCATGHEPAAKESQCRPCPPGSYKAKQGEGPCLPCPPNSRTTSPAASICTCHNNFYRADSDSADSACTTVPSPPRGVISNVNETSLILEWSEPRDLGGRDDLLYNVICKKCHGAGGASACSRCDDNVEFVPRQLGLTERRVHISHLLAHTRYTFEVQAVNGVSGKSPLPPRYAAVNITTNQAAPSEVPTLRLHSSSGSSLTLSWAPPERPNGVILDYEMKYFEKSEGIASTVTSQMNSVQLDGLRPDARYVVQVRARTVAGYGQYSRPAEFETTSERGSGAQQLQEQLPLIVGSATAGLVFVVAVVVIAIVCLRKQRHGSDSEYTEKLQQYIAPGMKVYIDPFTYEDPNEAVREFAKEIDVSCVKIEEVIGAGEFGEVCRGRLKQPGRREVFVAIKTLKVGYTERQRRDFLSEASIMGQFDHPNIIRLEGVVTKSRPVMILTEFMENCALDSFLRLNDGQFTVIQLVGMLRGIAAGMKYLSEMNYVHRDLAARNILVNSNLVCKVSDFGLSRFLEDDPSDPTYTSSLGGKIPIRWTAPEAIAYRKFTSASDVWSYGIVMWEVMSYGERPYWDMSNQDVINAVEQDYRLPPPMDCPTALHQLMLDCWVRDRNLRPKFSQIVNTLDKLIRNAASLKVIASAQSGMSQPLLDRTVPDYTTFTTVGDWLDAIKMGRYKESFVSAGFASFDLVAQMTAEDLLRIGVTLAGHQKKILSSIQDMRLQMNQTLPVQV

[8] = target: T2, Ephrin type-A receptor 1 (Homo sapiens) (UniProt P21709); experiment: Inhibition of EPHA1 (unknown origin) at 10 uM after 120 mins P33 radiolabeled kinase activity assay
T2 sequence (whole entry): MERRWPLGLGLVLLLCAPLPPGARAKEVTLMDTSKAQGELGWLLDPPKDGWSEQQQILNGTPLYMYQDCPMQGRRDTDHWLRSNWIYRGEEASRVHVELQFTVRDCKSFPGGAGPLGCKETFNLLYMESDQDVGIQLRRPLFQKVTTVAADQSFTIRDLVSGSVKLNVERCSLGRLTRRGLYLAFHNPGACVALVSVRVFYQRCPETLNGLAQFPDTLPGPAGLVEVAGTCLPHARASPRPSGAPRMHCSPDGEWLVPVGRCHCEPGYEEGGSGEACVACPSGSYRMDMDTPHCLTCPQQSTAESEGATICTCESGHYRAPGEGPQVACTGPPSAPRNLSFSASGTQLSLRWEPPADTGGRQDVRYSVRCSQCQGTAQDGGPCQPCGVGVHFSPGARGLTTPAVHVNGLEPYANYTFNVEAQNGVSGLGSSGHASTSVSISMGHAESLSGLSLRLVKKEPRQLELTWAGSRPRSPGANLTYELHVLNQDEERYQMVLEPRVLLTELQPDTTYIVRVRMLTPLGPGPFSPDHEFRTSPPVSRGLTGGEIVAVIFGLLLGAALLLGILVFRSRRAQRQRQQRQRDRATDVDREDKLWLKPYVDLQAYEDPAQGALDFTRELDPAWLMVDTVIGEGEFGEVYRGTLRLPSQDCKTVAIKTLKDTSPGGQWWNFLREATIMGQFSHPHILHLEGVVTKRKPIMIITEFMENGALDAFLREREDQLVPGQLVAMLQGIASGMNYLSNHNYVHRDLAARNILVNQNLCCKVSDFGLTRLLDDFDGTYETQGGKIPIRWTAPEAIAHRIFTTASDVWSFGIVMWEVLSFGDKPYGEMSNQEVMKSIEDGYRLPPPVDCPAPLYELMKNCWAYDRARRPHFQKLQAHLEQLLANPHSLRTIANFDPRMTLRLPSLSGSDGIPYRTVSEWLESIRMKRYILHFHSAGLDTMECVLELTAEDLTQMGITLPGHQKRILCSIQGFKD

RAF proto-oncogene serine/threonine-protein kinase (Homo sapiens), sequence (P04049 whole entry): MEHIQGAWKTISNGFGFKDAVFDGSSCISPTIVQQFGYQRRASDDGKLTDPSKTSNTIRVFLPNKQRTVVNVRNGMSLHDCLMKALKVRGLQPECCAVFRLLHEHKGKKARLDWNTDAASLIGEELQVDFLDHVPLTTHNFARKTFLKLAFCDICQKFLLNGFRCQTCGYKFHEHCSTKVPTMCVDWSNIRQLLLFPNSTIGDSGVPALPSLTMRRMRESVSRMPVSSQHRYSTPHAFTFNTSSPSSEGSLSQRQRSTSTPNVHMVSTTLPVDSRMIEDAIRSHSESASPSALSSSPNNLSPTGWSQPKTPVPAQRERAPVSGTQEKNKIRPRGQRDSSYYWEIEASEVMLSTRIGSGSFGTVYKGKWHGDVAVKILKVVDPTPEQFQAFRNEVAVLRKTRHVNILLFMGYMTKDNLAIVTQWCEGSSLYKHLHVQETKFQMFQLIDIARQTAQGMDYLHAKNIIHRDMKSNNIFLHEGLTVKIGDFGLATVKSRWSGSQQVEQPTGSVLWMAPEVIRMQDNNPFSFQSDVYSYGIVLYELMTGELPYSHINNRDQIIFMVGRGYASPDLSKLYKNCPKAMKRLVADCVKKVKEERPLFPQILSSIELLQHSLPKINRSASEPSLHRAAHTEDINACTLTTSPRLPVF
Serine/threonine-protein kinase 38 (Homo sapiens), sequence (Q15208 2-465 limits assumed): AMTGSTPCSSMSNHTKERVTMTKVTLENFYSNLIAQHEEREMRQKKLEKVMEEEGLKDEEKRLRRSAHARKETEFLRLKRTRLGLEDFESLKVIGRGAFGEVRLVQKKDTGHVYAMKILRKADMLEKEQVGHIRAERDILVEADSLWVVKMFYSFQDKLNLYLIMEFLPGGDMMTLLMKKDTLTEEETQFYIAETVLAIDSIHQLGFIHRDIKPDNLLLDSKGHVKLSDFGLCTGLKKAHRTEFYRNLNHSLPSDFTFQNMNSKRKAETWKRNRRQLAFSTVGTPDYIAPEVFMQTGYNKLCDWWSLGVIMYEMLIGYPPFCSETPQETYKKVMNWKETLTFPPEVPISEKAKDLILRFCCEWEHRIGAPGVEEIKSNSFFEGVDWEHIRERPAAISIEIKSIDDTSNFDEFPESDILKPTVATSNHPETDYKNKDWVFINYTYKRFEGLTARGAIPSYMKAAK
Mitogen-activated protein kinase kinase kinase 20 (Homo sapiens), sequence (Q9NYL2 2-800 limits assumed): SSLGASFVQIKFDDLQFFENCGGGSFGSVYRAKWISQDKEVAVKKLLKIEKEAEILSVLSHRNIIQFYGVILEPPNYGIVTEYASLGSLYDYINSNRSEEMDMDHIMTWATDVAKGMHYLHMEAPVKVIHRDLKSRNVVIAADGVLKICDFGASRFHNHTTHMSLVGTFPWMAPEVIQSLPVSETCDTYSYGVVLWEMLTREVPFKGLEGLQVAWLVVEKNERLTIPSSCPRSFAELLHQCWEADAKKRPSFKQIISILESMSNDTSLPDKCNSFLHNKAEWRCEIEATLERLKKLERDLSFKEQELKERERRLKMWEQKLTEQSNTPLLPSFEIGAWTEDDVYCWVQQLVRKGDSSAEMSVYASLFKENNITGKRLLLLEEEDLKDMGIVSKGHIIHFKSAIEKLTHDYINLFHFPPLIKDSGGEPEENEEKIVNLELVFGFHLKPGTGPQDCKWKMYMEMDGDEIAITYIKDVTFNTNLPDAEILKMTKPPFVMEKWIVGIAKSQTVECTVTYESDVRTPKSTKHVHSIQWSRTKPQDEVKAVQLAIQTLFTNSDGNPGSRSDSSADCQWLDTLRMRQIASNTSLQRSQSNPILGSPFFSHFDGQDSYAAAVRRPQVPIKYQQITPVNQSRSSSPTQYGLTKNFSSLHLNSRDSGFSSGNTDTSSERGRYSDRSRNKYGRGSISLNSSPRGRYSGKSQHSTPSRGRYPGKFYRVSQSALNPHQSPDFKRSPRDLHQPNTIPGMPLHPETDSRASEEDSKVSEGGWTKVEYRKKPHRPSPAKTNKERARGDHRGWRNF
Casein kinase I isoform alpha (Homo sapiens), sequence (P48729 2-337 limits assumed): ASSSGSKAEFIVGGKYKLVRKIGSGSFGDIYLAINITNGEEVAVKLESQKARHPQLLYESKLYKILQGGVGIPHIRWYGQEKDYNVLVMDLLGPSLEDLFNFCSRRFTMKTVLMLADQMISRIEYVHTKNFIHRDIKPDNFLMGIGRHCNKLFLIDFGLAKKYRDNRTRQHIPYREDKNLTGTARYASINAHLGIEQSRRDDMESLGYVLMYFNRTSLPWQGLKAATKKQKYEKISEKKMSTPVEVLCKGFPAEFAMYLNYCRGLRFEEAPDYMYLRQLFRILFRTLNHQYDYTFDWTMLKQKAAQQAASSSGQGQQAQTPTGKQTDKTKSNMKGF

Row | Structure (SMILES) | inhibition [1] [%] | inhibition [2] [%] | inhibition [3] [%] | inhibition [4] [%] | inhibition [5] [%] | inhibition [6] [%] | inhibition [7] [%] | inhibition [8] [%]
1 | COCCNC(=O)c1ccc2c(c1)nc(-c1cnc(-c3ccc(Cl)cc3)[nH]1)n2CCOC | 3.88 | 41.5 | 2.11 | 5.8 | 38.8 | 46.8 | 5.87 | 16.6
2 | CS(=O)(=O)c1cccc(Nc2nccc(-c3sc(N4CCOCC4)nc3-c3cccc(NS(=O)(=O)c4c(F)cccc4F)c3)n2)c1 | 27.4 | 100 | 16.1 | 83.8 | 99.8 | 22.6 | 7.1 | 91.4
3 | CC(C)(C)c1cc(NC(=O)Nc2ccc(Oc3ccncc3)cc2)no1 | 3.87 | 98.8 | 0.59 | 43.8 | 99.8 | 19.9 | 93.3 | 86.2
